Here are results for 38 compounds from ChEMBL document CHEMBL5543064, “Interleukin-1β converting enzyme (ICE): A comprehensive review on discovery and development of caspase-1 inhibitors” (Eur J Med Chem, 2023).

pIC50, pKi: −log10 of the molar value.

T2 sequence (Q14790 217-374 limits assumed): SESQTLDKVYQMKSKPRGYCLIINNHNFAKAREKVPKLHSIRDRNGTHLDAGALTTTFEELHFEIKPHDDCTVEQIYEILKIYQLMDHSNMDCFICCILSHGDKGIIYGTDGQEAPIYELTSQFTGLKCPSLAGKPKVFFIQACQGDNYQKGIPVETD
T2 sequence (Q14790 385-479 limits assumed): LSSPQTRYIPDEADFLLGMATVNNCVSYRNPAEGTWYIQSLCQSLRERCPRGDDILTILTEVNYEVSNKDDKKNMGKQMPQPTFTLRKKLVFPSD
Interleukin-1 beta (Homo sapiens), sequence (P01584 117-269 limits assumed): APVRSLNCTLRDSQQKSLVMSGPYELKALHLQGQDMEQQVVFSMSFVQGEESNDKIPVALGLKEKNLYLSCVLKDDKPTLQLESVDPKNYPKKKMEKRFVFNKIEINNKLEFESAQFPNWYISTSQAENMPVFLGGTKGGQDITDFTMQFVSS

The target in one data set is T1, Caspase-1 (Homo sapiens, UniProt P29466).
T1 sequence (P29466 whole entry): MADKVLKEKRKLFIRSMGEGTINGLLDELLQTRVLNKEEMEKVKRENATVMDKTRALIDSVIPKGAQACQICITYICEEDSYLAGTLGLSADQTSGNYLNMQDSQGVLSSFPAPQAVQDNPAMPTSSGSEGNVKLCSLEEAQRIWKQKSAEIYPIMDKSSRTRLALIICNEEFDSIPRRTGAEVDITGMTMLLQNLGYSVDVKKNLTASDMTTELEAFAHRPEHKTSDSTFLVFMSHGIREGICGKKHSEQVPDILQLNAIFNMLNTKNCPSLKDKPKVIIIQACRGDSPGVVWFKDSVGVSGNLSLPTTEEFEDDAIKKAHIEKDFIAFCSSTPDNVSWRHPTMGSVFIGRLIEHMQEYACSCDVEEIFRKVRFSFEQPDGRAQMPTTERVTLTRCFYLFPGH
The data set can be described thus: Inhibition of caspase-1 (unknown origin) by fluorescence based analysis.
Conditions: not given
Regarding `O=C1C[C@H](NC(=O)[C@@H]2CCCN3C(=O)CC[C@H](NC(=O)c4nccc5ccccc45)C(=O)N23)[C@H](O)O1`, the pIC50 is 8.89.

The next data set addresses T1, Caspase-1. The experiment in a line: Binding affinity to human caspase-1 assessed as apparent inhibition constant. The conditions noted are these: read-out: Ki(app).
Regarding `O=C[C@H](CC(=O)O)NC(=O)CCCCCNC(=O)c1ccc(Nc2cnc3ccccc3n2)cc1`, the pKi was 6.82.

A further data set has as its target T1, Caspase-1. The data set can be described thus: Inhibition of caspase-1 (unknown origin) using Ac-Tyr-Val-Ala-Asp-AFC as fluorogenic substrate by fluorescence based analysis.
Conditions: not given
With `CC(C)[C@H](NC(=O)c1ccc2ccccc2c1)C(=O)N1CCC[C@H]1C(=O)N[C@H](C=O)CC(=O)NS(C)(=O)=O`, the pIC50 was 7.42. The compound `CC(C)[C@H](NC(=O)c1ccc2ccccc2c1)C(=O)N(CCCn1ccnc1)CC(=O)N[C@@H](CC(=O)O)C(=O)COc1ccccc1` gave a pIC50 of 7.89. With `CCCCN(CC(=O)N[C@@H](CC(=O)O)C(=O)COc1ccccc1)C(=O)[C@@H](NC(=O)c1ccc2ccccc2c1)C(C)C`, the negative logarithm of the IC50 (pIC50) is 7.66.

For another data set, the target named is T1, Caspase-1. The data set can be described thus: Binding affinity to N-terminal His-tagged Caspase-1 (unknown origin) assessed as inhibition constant.
Conditions: not given
Consider `CC(=O)N[C@H](C(=O)N[C@@H](CC(=O)O)C(=O)COC(=O)Cc1c(Cl)ccc(Cl)c1Cl)C(C)C`, for which the pKi was 6.95. Still for that read-out and setting: for `CC(=O)N[C@H](C(=O)N[C@@H](CC(=O)O)C(=O)COC(=O)Cc1c(Cl)cccc1Cl)C(C)C` the value was 7.10.

In a further data set the target is Caspase-1 (Homo sapiens) (UniProt P29466). The data set can be described thus: Binding affinity to caspase-1 (unknown origin) assessed as inhibition constant.
Conditions: not given
Take `O=C[C@H](CC(=O)O)NC(=O)Cn1c(-c2ccccc2)ccc(NC(=O)CCc2ccccc2)c1=O`: the pKi is 6.05. `O=C[C@H](CC(=O)O)NC(=O)[C@@H]1CCCN2C(=O)CC[C@H](NC(=O)c3ccc(OCC(=O)O)cc3)C(=O)N12`: the pKi was 9.00. As to `O=CC(CC(=O)O)NC(=O)Cn1c(Cc2ccccc2)ccc(NC(=O)CCc2ccccc2)c1=O` (single isomer, unassigned), the negative logarithm of the Ki (pKi) was 6.82. Same read-out and setting: next, `CC(C(=O)NC(C=O)CC(=O)O)n1c(Cc2ccccc2)ccc(NC(=O)CCc2ccccc2)c1=O` (single isomer, unassigned): 6.01.

The next data set has as its target T1, Caspase-1. The experiment in a line: Inhibition of N-terminal His-tagged Caspase-1 (unknown origin).
Conditions: not given
`O=C(O)CC(NC(=O)C(NC(=O)OCc1ccccc1)c1ccccc1)C(=O)COC(=O)c1ccccc1` (configuration not stated) gave a pIC50 of 6.09. On to `COC(=O)CC(NC(=O)C(NC(=O)OCc1ccccc1)c1ccccc1)C(=O)COC(=O)c1ccccc1` (configuration not stated), for which the pIC50 is 5.25.

A further data set concerns the target Interleukin-1 beta (Homo sapiens) (UniProt P01584). The experiment in a line: Inhibition of human Interleukin-1beta at 30 uM relative to control.
Conditions: not given
In turn, `O=c1cc(-c2ccccc2Cl)sn1-c1ccc(C(F)(F)F)cc1` showed an inhibition of 83%. As for `N#Cc1ccc(-n2sc(-c3ccccc3Cl)cc2=O)cc1`, the inhibition amounted to 89%. Same read-out and setting: for `CCOC(=O)c1ccc(-n2sc(-c3ccccc3Cl)cc2=O)cc1` the value was 87%.

The next data set addresses T1, Caspase-1. The experiment in a line: Binding affinity to caspase-1 (unknown origin) assessed as inhibition constant.
Conditions: not given
Regarding `CC(C)C(NC(=O)OCc1ccccc1)C(=O)N[C@@H](C)C(=O)NC(CC(=O)O)C(=O)CNS(=O)(=O)CCc1ccccc1` (some centres not stated), the negative logarithm of the Ki (pKi) was 8.40. For the compound `O=C(CN1C(=O)[C@H](NC(=O)c2ccccc2)CN(C(=O)CCc2ccccc2)c2ccccc21)N[C@H]1CC(=O)OC1O` (some centres not stated), the pKi was 6.07.

Take `C[C@H](NC(=O)[C@H](CCC(=O)O)NC(=O)OCc1ccccc1)C(=O)NC(CC(=O)O)C(=O)CNS(=O)(=O)CCc1ccccc1` (some centres not stated): the pKi is 7.70.

The next data set has as its target T2, Caspase-8 (Homo sapiens, UniProt Q14790). The data set can be described thus: Inhibition of caspase-8 (unknown origin) by fluorescence based analysis.
Conditions: not given
The compound `O=C1C[C@H](NC(=O)[C@@H]2CCCN3C(=O)CC[C@H](NC(=O)c4nccc5ccccc45)C(=O)N23)[C@H](O)O1` gave a pIC50 of 9.92.

Another data set has as its target T1, Caspase-1. The experiment in a line: Inhibition of Caspase-1 (unknown origin).
Conditions: not given
On to `C[C@H](NC(=O)C(NC(=O)c1cc2ccccc2[nH]1)C(=O)O)C(=O)N[C@H](CN=[N+]=[N-])CC(=O)O` (some centres not stated), for which the pIC50 is 7.12. Turning to `CCC(C)(C)c1ccc(Oc2ccccc2S(=O)(=O)N[C@H](C=O)CC(=O)O)cc1`, the negative-log IC50 (pIC50) was 5.66.

For the compound `CC(C)C(NC(=O)OCc1ccccc1)C(=O)N[C@@H](C)C(=O)NC(CC(=O)O)C(=O)CNS(=O)(=O)CCc1ccccc1` (some centres not stated), the pIC50 was 6.15. In the case of `CCC(C)(C)c1ccc(Oc2ccccc2S(=O)(=O)N[C@H](C=O)CC(=O)O)cc1C`, the negative logarithm of the IC50 (pIC50) was 6.00. In turn, `C[C@H](NC(=O)C(NC(=O)c1ccc2ccccc2c1)C(=O)O)C(=O)N[C@H](CN=[N+]=[N-])CC(=O)O` (some centres not stated) gave a pIC50 of 7.40. Still for that read-out and setting: next, `CC(C)(NC(=O)CNC(=O)c1ccc2ccccc2c1)C(=O)N[C@H](CN=[N+]=[N-])CC(=O)O`: 8.10; `Cc1cccc(S(=O)(=O)N[C@H](C=O)CC(=O)O)c1-c1ccccc1`: 4.46.

`O=C[C@H](CC(=O)O)NS(=O)(=O)c1ccccc1-c1cccc2ccccc12`: the negative logarithm of the IC50 (pIC50) was 4.94. Same read-out and setting: for `CC(C)C(NC(=O)c1ccc2ccccc2c1)C(=O)N[C@@H](C)C(=O)N[C@H](CN=[N+]=[N-])CC(=O)O` (some centres not stated) the value was 8.34; for `Cc1cc(Oc2ccccc2S(=O)(=O)N[C@H](C=O)CC(=O)O)ccc1C(C)C`, 6.00; for `C[C@H](NC(=O)[C@H](CCC(=O)O)NC(=O)OCc1ccccc1)C(=O)NC(CC(=O)O)C(=O)CNS(=O)(=O)CCc1ccccc1` (some centres not stated), 7.70.

Tested on in the next data set: not listed separately
The data set can be described thus: Toxicity in Sprague-Dawley rat assessed as […] mortality at 12.5 micromol/kg. Particulars: in vivo, 12.5 µmol/kg.
For `CC(=O)C[C@@H](C(=O)CCl)N(C(=O)[C@@H](NC(=O)[C@H](Cc1ccc(O)cc1)NC(C)=O)C(C)C)[C@@H](C)C(N)=O`, the mortality is 33%.

Tested on in a further data set: not listed separately
The experiment in a line: Oral bioavailability in rat. The conditions noted are these: in vivo. Type of data set: ADME, organism-based.
The compound `O=C1C[C@H](NC(=O)[C@@H]2CCCN3C(=O)CC[C@H](NC(=O)c4nccc5ccccc45)C(=O)N23)[C@H](O)O1` showed a bioavailability of 4%.

The target of another data set is T1, Caspase-1. The data set can be described thus: Inhibition of Interleukin-1beta-converting enzyme (unknown origin).
Conditions: not given
Regarding `CC1=C(O)C(=O)C=C2C1=CC=C1[C@@]2(C)CC[C@@]2(C)[C@@H]3C[C@](C)(C(=O)O)CC[C@]3(C)CC[C@]12C` [CELASTROL], the pIC50 is 7.40. `COC(=O)c1ccc(NC(=O)CCCCC(=O)Nc2ccc3c(c2)C(=O)C(=O)NC3=O)cc1` gave a negative logarithm of the IC50 (pIC50) of 7.72. For `COC(=O)[C@]1(C)CC[C@]2(C)CC[C@]3(C)C4=CCc5c(cc(OC(C)=O)c(OC(C)=O)c5C)[C@]4(C)CC[C@@]3(C)[C@@H]2C1` [PRISTIMEROL DIACETATE], the pIC50 was 7.10. `COC(=O)[C@]1(C)CC[C@]2(C)CC[C@]3(C)C4=CC=C5C(=CC(=O)C(O)=C5C)[C@]4(C)CC[C@@]3(C)[C@@H]2C1` [PRISTIMERIN] had a negative logarithm of the IC50 (pIC50) of 7.25.

Consider `CC1=C(O)C(=O)C=C2C1=CC=C1[C@@]2(C)CC[C@@]2(C)[C@@H]3C[C@@H](C)C(=O)C[C@]3(C)CC[C@]12C` [TINGENONE], for which the pIC50 was 7.24.

The target of another data set is T2, Caspase-8. The data set can be described thus: Binding affinity to Caspase-8 (unknown origin) using Ac-IETD-AFC as substrate assessed as inhibition constant.
Conditions: not given
As to `CC(C)[C@H](NC(=O)CCc1ccccc1)C(=O)N[C@@H](C)C(=O)N[C@@H](CC(=O)O)C(=O)CCCc1ccccc1`, the pKi is 7.00. Turning to `CC(C)[C@H](NC(=O)CCc1ccccc1)C(=O)N[C@@H](C)C(=O)N[C@@H](CC(=O)O)C(=O)CCc1ccccc1`, the negative logarithm of the Ki (pKi) was 6.21. For the compound `CC(=O)N[C@@H](Cc1ccc(O)cc1)C(=O)N[C@H](C(=O)N[C@@H](C)C(=O)N[C@@H](CC(=O)O)C(=O)CCCCCc1ccccc1)C(C)C`, the pKi is 7.73. Take `CC(=O)N[C@@H](Cc1ccc(O)cc1)C(=O)N[C@H](C(=O)N[C@@H](C)C(=O)N[C@@H](CC(=O)O)C(=O)CCCCc1ccccc1)C(C)C`: the pKi is 7.38.

The pIC50 is the IC50 on a negative log10 scale, so that one unit is a factor of ten. Low values mean a large IC50, high ones a small IC50. As usually defined, the pKi is the Ki on a negative log10 scale, so that one unit is a factor of ten. Broadly, the inhibition is the percentage by which the read-out fell short of the control. A high value points to a strong effect. For orientation: mortality means the share of the test organisms that died. Usually bioavailability stands for dose-corrected exposure relative to a reference, in per cent. Read a high bioavailability as much systemic uptake.
